# Results published in article PMC4207771, “Identification and Characterization of Novel Renal Sensory Receptors” (PLoS ONE, 2014).
# “Also recorded” adds a separate entry of the source. Read-outs that look alike come from different tables or passages of the source.
# Experiments:
# [1] = target: T1, Olfr691 (Mus musculus, UniProt Q8VGW5); assay: dual-luciferase (cAMP/CREB reporter) ligand screen, Olfr691 in HEK293T cells; assay type: cell-based; settings: for Olfr691 response in dual-luciferase assay: chemicals tested individually, screened at 500uM (* also at 100uM); for Relative response (% of 4-pentenoate response) at 500 µM: HEK-293T, 4 h; for EC50: Olfr691 co-expressed with RTP1S in HEK293T cells, 10 µM to 7.5 mM
# T1 construct: Lucy (N); expressed in transfected cells; host or cells: HEK293T, co-transfected with RTP1S
# T1 sequence (Q8VGW5 1-322): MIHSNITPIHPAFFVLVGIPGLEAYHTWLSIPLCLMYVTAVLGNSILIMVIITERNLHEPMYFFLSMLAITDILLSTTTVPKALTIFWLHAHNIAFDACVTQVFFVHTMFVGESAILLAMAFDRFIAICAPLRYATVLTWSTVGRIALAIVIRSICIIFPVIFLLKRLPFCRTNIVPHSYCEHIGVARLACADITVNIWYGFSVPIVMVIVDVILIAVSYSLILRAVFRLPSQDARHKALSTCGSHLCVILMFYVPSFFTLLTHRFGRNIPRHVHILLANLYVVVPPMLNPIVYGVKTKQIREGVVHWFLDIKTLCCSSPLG
# [2] = tested on: Olfr545; assay: dual-luciferase (cAMP/CREB reporter) ligand screen, Olfr545 in HEK293T cells; assay type: cell-based, mouse; parameters: key to Olfr545 response in dual-luciferase assay: ‘+’ or ‘–‘ in each column indicates if the olfactory receptor responded or had no effect to that specific chemical; -: ‘+’ or ‘–‘ in each column indicates if the olfactory receptor responded or had no effect to that specific chemical; settings: for Olfr545 response in dual-luciferase assay: chemicals tested individually, screened at 500uM (* also at 100uM)
# [3] = tested on: Olfr99; assay: dual-luciferase (cAMP/CREB reporter) ligand screen, Olfr99 in HEK293T cells; assay type: cell-based, mouse; parameters: key: ‘+’ or ‘–‘ in each column indicates if the olfactory receptor responded or had no effect to that specific chemical; -: ‘+’ or ‘–‘ in each column indicates if the olfactory receptor responded or had no effect to that specific chemical; settings: chemicals tested individually, screened at 500uM (* also at 100uM)
# [4] = target: T2, Olfr31 (Mus musculus, UniProt Q3KPA7); assay: dual-luciferase (cAMP/CREB reporter) ligand screen, Olfr31 in HEK293T cells; assay type: cell-based; settings: chemicals tested individually, screened at 500uM (* also at 100uM)
# T2 construct: expressed in transfected cells; host or cells: HEK293T, co-transfected with RTP1S
# T2 sequence (Q3KPA7 1-317): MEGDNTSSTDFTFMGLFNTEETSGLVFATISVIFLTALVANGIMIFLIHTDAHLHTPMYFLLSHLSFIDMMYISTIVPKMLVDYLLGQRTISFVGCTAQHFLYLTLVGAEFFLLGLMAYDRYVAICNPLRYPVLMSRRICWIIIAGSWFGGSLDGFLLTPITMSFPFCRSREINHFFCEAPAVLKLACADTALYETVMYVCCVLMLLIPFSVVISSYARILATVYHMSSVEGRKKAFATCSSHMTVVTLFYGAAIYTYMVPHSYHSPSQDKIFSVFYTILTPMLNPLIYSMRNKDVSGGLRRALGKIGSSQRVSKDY
# [5] = tested on: Olfr693; assay: dual-luciferase (cAMP/CREB reporter) ligand screen, Olfr693 in HEK293T cells; assay type: cell-based, mouse; parameters: key: ‘+’ or ‘–‘ in each column indicates if the olfactory receptor responded or had no effect to that specific chemical; -: ‘+’ or ‘–‘ in each column indicates if the olfactory receptor responded or had no effect to that specific chemical; settings: chemicals tested individually, screened at 500uM (* also at 100uM)
# [6] = target: T1, Olfr691; parameters: method as in PMID 15550249; settings: cited from earlier work
# [7] = parameters: method as in PMID 20304335, PMID 15230715; settings: patients treated with valproate as an antiepileptic drug; cited from earlier work
# [8] = 0.5 mM ligand, normalized to the response of Olfr691 to the strongest ligand, 4-pentenoate
# [9] = luciferase assay, co-expressed with RTP1S
Compound,Olfr691 response in dual-luciferase assay [1],Olfr545 response in dual-luciferase assay [2],Olfr99 response in dual-luciferase assay [3],Olfr31 response in dual-luciferase assay [4],Olfr693 response in dual-luciferase assay [5],"Relative response (% of 4-pentenoate response) at 500 µM [1, 8] [%]",EC50 [1] [µM],"Olfr691 response (in words) ([1]; luciferase assay, co-expressed with RTP1S, listed as pentanal)",previously reported ligand of Olfr691 ([6]; listed as pentanal),Olfr691 response (in words) [1],"Relative response at 0.5mM [1, 8]","Olfr691 response (in words) [1, 9]",Olfr545 response (in words) ([2]; luciferase assay),previously reported ligand of Olfr691 [6],renal adverse effect in patients [7]
CCOC(=O)c1ccccc1 [ethyl benzoate],-,-,-,-,-,,,,,,,,,,
C=CCc1ccc(O)c(OC)c1 [eugenol],-,-,-,-,-,,,,,,,,,,
CCCCCCC(=O)O [heptanoate],+,-,-,-,-,41 ± 2.1,,,,,,,,,
CC(C)C(=O)O [isobutyrate],+,-,-,-,-,97 ± 10.8,1130,,,,,,,,
CC(C)CCC(=O)O [isocaproate],+,-,-,-,-,37 ± 2.7,,,,,,,,,
N[C@@H](CCC(=O)O)C(=O)O [l-glutamate],-,-,-,-,-,,,,,,,,,,
CC(C)[C@H](N)C(=O)O [l-valine],-,-,-,-,-,,,,,,,,,,
CC(O)C(=O)O (stereo not drawn) [lactic acid],-,-,-,-,-,,,,,,,,,,
C=CC(C)(O)CCC=C(C)C (stereo not drawn) [linalool],-,-,-,-,-,,,,,,,,,,
CC(=O)c1c(C)c([N+](=O)[O-])c(C(C)(C)C)c([N+](=O)[O-])c1C [musk ketone],-,-,-,-,-,,,,,,,,,,
CCCCC=O [n-valeraldehyde],-,-,-,-,-,,,did not induce a response,previously reported,,,,,,
CCCCCCCCC=O [nonanal],-,-,-,-,-,,,,,,,,,,
CCCCCCCCC(=O)O [nonanoic acid],-,-,-,-,-,,,,,,,,,,
CC1(C)C2CCC(=O)C1C2 (stereo not drawn) [nopinone],-,-,-,-,-,,,,,,,,,,
O=C1CC2CC[C@H]1C2 [norcamphor],-,-,-,-,-,,,,,,,,,,
CCCCCCCC(=O)O [octanoic acid],+,-,-,-,-,20 ± 0.9,,,,responds,,,,,
O=C1CCCCCCCCCCCCCCO1 [omega-pentadecalactone],-,-,-,-,-,,,,,,,,,,
CC(C)C(=O)OCCc1ccccc1 [phenyl ethyl isobutyrate],-,-,-,-,-,,,,,,,,,,
CCC(=O)O [propionate],+,-,-,-,-,,,,,,42 ± 3.1,responds,,,
O=C(O)CCCCCCCCC(=O)O [sebacic acid],-,-,-,-,-,,,,,,,,did not induce a response,,
CCCCC/C=C/CO [trans-2-octen-1-ol],-,-,-,-,-,,,,,,,,,,
CCCCC(=O)O [valerate],+,-,-,-,-,98 ± 5.7,852,,,,,dose dependent manner; also recorded: able to confirm,,previously reported,
"CCCC(CCC)C(=O)O [valproate, reference compound]",+,-,-,,-,98 ± 5,478,,,,,highest affinity,,,develop Fanconi syndrome
Myrtenal,-,-,-,-,-,,,,,,,,,,
